{"source": "paper PMC11988912", "about": "“Sensitization Potential of the Major Soybean Allergen Gly m 4 and Its Cross-Reactivity with the Birch Pollen Allergen Bet v 1” (International Journal of Molecular Sciences, 2025)", "data": [{"target": "T1, Gly m 4 (Glycine max, UniProt P26987)", "T1 construct": "gene PR-10; recombinant allergen, full length; made in E. coli", "T1 sequence (P26987 1-158)": "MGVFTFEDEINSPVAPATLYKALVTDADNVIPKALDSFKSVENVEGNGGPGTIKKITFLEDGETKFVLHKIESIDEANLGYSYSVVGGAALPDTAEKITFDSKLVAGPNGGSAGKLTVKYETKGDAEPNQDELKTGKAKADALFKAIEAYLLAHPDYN", "assay": "TNS fluorescence displacement", "type": "binding", "details": "4 uM ligand, 4 uM TNS, 4 uM Gly m 4; 10 mM phosphate buffer pH 7.4, 25 C; residual fluorescence of the Gly m 4-TNS complex", "units": {"% of the control fluorescence": "%"}, "values": [{"compound": "C[C@H](CCC(=O)O)[C@H]1CC[C@H]2[C@@H]3[C@H](O)C[C@@H]4C[C@H](O)CC[C@]4(C)[C@H]3C[C@H](O)[C@]12C", "note": "[CA, cholic acid]", "% of the control fluorescence": 88}, {"compound": "C[C@H](CCC(=O)O)[C@H]1CC[C@H]2[C@@H]3[C@H](O)C[C@@H]4C[C@H](O)CC[C@]4(C)[C@H]3CC[C@]12C", "note": "[CDCA, chenodeoxycholic acid]", "% of the control fluorescence": 53}, {"compound": "CC(C)CCC[C@@H](C)[C@H]1CC[C@H]2[C@@H]3CC=C4C[C@@H](O)CC[C@]4(C)[C@H]3CC[C@]12C", "note": "[CHOL, cholesterol]", "% of the control fluorescence": 83}, {"compound": "C[C@H](CCC(=O)O)[C@H]1CC[C@H]2[C@@H]3CC[C@@H]4C[C@H](O)CC[C@]4(C)[C@H]3C[C@H](O)[C@]12C", "note": "[DCA, deoxycholic acid]", "% of the control fluorescence": 71}, {"compound": "C[C@H](CCC(=O)O)[C@H]1CC[C@H]2[C@@H]3CC[C@@H]4C[C@H](O)CC[C@]4(C)[C@H]3CC[C@]12C", "note": "[LCA, lithocholic acid]", "% of the control fluorescence": 10}]}]}
